The record followed here is patent publication US20060270631A1, “Methods for the treatment and prevention of angiogenic diseases” (priority 2005, published 2006).

A word on the solubility: it is how much of the substance goes into solution per volume. The term AUC(0-inf) denotes the area under the concentration-time curve extrapolated to infinity. Read a low AUC(0-inf) as low exposure. The Cmax is the peak of the concentration-time curve. As a reminder, the Tmax is the time at which the peak concentration occurs. In general, half-life refers to how long it takes for the measured level to halve. A lower half-life goes with rapid decline.

Values joined by “and” are separate entries in the source; they are usually repeats but may differ in a detail not shown here. Equal entries are not always repeated.

One series deals with endogenous SK. The experiment in a line: Cellular SK activity in bovine retinal endothelial cells. The class given is cell-based. To be noted: 4 hours. As for the experimental part:
FIG. 3. Inhibition of cellular SK activity in RECs. Bovine retinal endothelial cells were incubated with 20 μM dimethylsphingosine (DMS) or 25 μg/mL Compound I, Compound II or Compound V (approximately 80 μM for each compound) for 4 hours before the addition of 0.4 μCi of [^3H]sphingosine. After 15 minutes, cells were lysed and extracted with chloroform: methanol. The total amounts of [^3H]sphingosine in the organic phase and [^3H]S1P in the aqueous phase were then determined. Values represent the mean±SD of duplicate samples in a typical experiment.
Cellular S1P formation assay. Cells were grown to confluency in 24-well tissue culture plates and serum-starved for 24 hours as described above. Cells were then treated with 1% DMSO (as the drug vehicle), 20 μM dimethylsphingosine, or the indicated concentration of an SK inhibitor for 4 hours. The cells were then incubated with [^3H]sphingosine for 15 minutes, and the formation of [^3H]S1P was measured as previously described (French et al., Cancer Res 63: 5962 (2003)). In some assays, the cells were serum-starved for 24 hours and then treated with VEGF (50 ng/mL) alone or in the presence of an SK inhibitor for an additional 12 hours. [^3 H]Sphingosine was then added for 15 minutes, and its conversion to [^3H]S1P was measured as indicated above.
A cell-based assay in which the phosphorylation of exogenously added [^3H]sphingosine to [^3H]S1P by endogenous SK can be quantified (French et al., Cancer Res 63: 5962 (2003)) was used to evaluate the effects of test compounds on the activity of SK in intact cells. In this assay, cells are incubated with [^3 H]sphingosine for an appropriate period of time, and then [^3H]sphingosine and [^3H]S1P (formed by endogenous SK activity) are separated by extraction and levels of both species are determined by scintillation counting. We have used a number of cell lines in this assay to confirm that the SK inhibitors are active in multiple intact cell systems. For example, human umbilical vein endothelial cells (HUVECs) are commonly used as a model of human vasculature. […] Similarly, the enzymatic activity of SK in bovine RECs, and its sensitivity to SK inhibitors were assessed. […] Each of inhibitors of SK (Compound I, Compound II and Compound V) was also active against the endogenous SK activity in the bovine RECs.

Series [1] relates to female Swiss-Webster mice. As to conditions: mouse, in vivo.
Experimental: (§1) The compounds are soluble to at least 15 mg/ml in 50% dimethylsulfoxide:50% phosphate-buffered saline (DMSO:PBS) for intraperitoneal (IP) administration or Polyethylene glycol-400 (PEG400) for oral dosing.
A further series in a line: physchem. As to conditions: aqueous with cosolvent or surfactant or cyclodextrin.
In a further series the test system is male Lewis rats. Briefly: Adjuvant-Induced Arthritis model in rats. Type of series: in vivo, rat. As to conditions: Day 10. The protocol: FIG. 11. Effects of ABC294640 on disease progression in the adjuvant-induced arthritis model in rats. Male Lewis rats were injected subcutaneously with Mycobacterium butyricum, and symptoms of immune reactivity were present after 2 weeks. Responsive rats were randomized into treatment groups (n=8 per group), and received oral daily doses of: solvent alone (0.375% Tween-80); 100 mg/kg ABC294640; 35 mg/kg ABC294640; or 5 mg/kg ABC294640, or intraperitoneal injections of indomethacin (5 mg/kg) every other day. The severity of disease in each animal was quantified by measurement of the hind paw thickness. Panel A. Time course of hind paw arthritic response. Panel B. Final day (Day 10) hind paw thickness measurements. Panel C. Change in paw thickness of respective group versus non-arthritic rats (naive) at Day 10. *,p<0.05; ***, p<0.001 versus solvent alone group.
Adjuvant-induced arthritis is another widely used assay that recapitulates many features of human rheumatoid arthritis, and so is useful in the evaluation of new drug candidates. Age- and weight-matched male Lewis rats (150-170 g) were injected subcutaneously in the tail with 1 mg of Mycobacterium butyricum (Difco, killed dried) suspended in 0.1 ml of light mineral oil. Symptoms of immune reactivity were present after 2 weeks. Responsive rats were randomized into treatment groups, and received oral daily doses (1 ml) of: solvent alone (0.375% Tween-80); 100 mg/kg ABC294640; 35 mg/kg ABC294640; or 5 mg/kg ABC294640, or intraperitoneal injections of indomethacin (5 mg/kg) every other day as a positive control. The severity of disease in each animal was quantified by measurement of the hind paw thickness. As above, a reduction of 30% or greater was considered to be an indication of anti-inflammatory activity in this model.

Series [2] relates to diabetic Sprague-Dawley rats. The experiment in a line: Retinal vascular permeability in streptozotocin-diabetic rats. As to conditions: 25 or 75 mg/kg IP, 5 days per week, Day 45 to Day 87; inner plexiform and outer nuclear layers. Type of series: in vivo, rat. The protocol:
FIG. 9. Effects of ABC 294640 on retinal vascular permeability in diabetic rats. From Day 45 through Day 87, Control (open bars) and Diabetic rats were treated with solvent (shaded bars) or ABC294640 at 25 mg/kg (horizontal-hatched bars) or 75 mg/kg (cross-hatched bars). On Day 87, retinal leakage in each animal was measured. Values represent the mean±sd for 3-5 rats per group.
Male Sprague-Dawley rats weighing 150-175 g were used. Diabetes was produced by intraperitoneal injection of streptozotocin (65 mg/kg in citrate buffer) after overnight fasting. Sham-injected non-diabetic animals were also carried as controls. Blood glucose was measured three days post-injection and animals with blood glucose over 250 mg/dL were used as diabetic rats for the study. Blood glucose levels and body weights were monitored weekly throughout the study. On Day 45, retinal vascular permeability was measured in a group of control and diabetic rats (Antonetti et al., Diabetes 47: 1953 (1998), Barber et al., Invest Ophthalmol Vis Sci 46: 2210 (2005)). […] Sections were dewaxed and viewed with an Olympus OM-2 fluorescence microscope fitted with a Sony CLD video camera. Fluorescence intensities of digital images were measured using Leica Confocal Software (Version 2.61, build 1538, LCS Lite, 2004). […]

Series [3] concerns VEGF-induced vascular permeability. The experiment in a line: VEGF-induced vascular leakage (Miles assay) in nude mice. The class given is in vivo, mouse. As to conditions: FIG. 7B.
A further series relates to female DBA/1 mice. Briefly: Collagen-Induced Arthritis (CIA) model in mice. The class given is in vivo, mouse. As to conditions: 100 mg/kg orally, Day 12.
A further series can be described thus: Pharmacokinetics in mice. Type of series: in vivo, mouse. As to conditions: for AUC(0-inf) / Cmax / Tmax / half-life: female, Swiss-Webster, mouse, whole blood, mice. The protocol:
Mice were anesthetized and blood was removed by cardiac puncture at time points ranging from 1 minute to 8 hours. […] Control blood samples were spiked with known amounts of internal standard and analyte to identify compound-specific peaks and to develop standard curves for quantification. Pharmacokinetic parameters were calculated using the WINNONLIN analysis software package (Pharsight).

The next series concerns sphingosine kinase (SK). The experiment in a line: Screening assay for inhibitors of SK. To be noted: library screen. Type of series: biochemical, human. An excerpt: An assay for screening for inhibitors of SK has been established (French et al., Cancer Res 63: 5962 (2003)). […] Representative active compounds from four chemotypes of SK inhibitors, designated herein as Compounds I-IV, are shown in FIG. 1.

Series [4] relates to JC murine mammary adenocarcinoma. Briefly: JC mammary adenocarcinoma syngenic tumor model in Balb/C mice. The protocol: FIG. 12. […] Balb/c female mice were injected subcutaneously with JC cells suspended in PBS. […] Whole body weight and tumor volume measurement were performed for up to 18 days. *p<0.05. Inset: Averaged body weights of mice from each group during course of study.
FIG. 13. […] Balb/c female mice were injected s.c. with JC cells suspended in PBS.
We determined the antitumor activity of representative SK inhibitors in a syngenic mouse tumor model that uses a transformed murine mammary adenocarcinoma cell line (JC, ATCC Number CRL-2116) and Balb/C mice (Charles River) (Lee et al., Oncol Res 14: 49 (2003)). Animals were housed under 12 hour light/dark cycles, with food and water provided ad libitum. Tumor cells (1×10^6) were implanted subcutaneously, and tumor volume was calculated using the equation: (L×W^2)/2. Upon detection of tumors, mice were randomized into treatment groups.

Experimental for physchem: as §1

`CCCCCCCCCCCCC/C=C/[C@@H](O)[C@H](CO)N(C)C` [DMS, dimethylsphingosine, reference compound]: in the series with endogenous SK (20 μM, positive control), the “endogenous SK activity in bovine RECs” value is recorded as “inhibition of SK”.
On to `O=C(NN=Cc1c(O)ccc2ccccc12)c1cc(-c2ccc3ccccc3c2)n[nH]1` [Compound I], for which the “endogenous SK activity in bovine RECs” value in the series on endogenous SK (25 μg/mL (approximately 80 μM)) was “active”.
Consider `O=C(NCc1ccncc1)C12CC3CC(C1)CC(c1ccc(Cl)cc1)(C3)C2` [ABC294640], for which the nontoxic dose in series [1] worked out at 1000 mg/kg. For the same compound, in series [1] (ip), the “dose with no immediate or delayed toxicity, acute” value is “at least 50 mg/kg”. Also, the “dose without noticeable toxicity” value in series [1] (po) is “at least 100 mg/kg”. The compound also gave a solubility in “physchem” of no less than 15 mg/mL. For the same compound, the “reduction in the arthritic response (hind paw thickness)” value (“reduction in the arthritic response” below) with male Lewis rats (5 mg/kg oral daily) was 13%. The “reduction in the arthritic response” value in the series on male Lewis rats (35 mg/kg oral daily) was 42%. The “reduction in the arthritic response” value with male Lewis rats (100 mg/kg oral daily) is 76%. Besides, the “FITC-BSA leakage into the retina versus untreated diabetic rats” value in series [2] is on record as “substantially reduced”. Further, the “VEGF-promoted dye leakage into mouse skin” value in [3] (75 mg/kg intraperitoneal) is “suppressed”. For the same compound, in series [3] (100 mg/kg oral gavage), the “VEGF-promoted dye leakage into mouse skin” value is “suppressed”. For the same compound, in the series with female DBA/1 mice (6 days per week), the “reduction in clinical score versus vehicle” value is 67% and the “reduction in the increase in hind paw thickness versus vehicle” value was determined as 90%. In addition, in the series on female DBA/1 mice, the “histologic damage of tibiotarsal joints” value is on record as “significantly reduced”. Moreover, the “blood levels versus IC50 for inhibition of SK activity” value in “Pharmacokinetics in mice” (during the entire study (up to 8 hours)) was “exceeded the IC50”. For the same compound, in the series “Pharmacokinetics in mice” (IV 50 mg/kg), the total exposure AUC(0-inf) is 56900 ng·h/mL and 137 µM·h; the Cmax is 31100 ng/mL and 74 µM; the Tmax amounted to 0 h; the half-life is 1.4 h. Besides, in “Pharmacokinetics in mice” (Oral 50 mg/kg), the AUC(0-inf) was 37500 ng·h/mL and 90.1 µM·h; the Cmax was 8000 ng/mL and 19 µM; the Tmax is 0.25 h; the half-life was 4.5 h. Further, the “inhibition of SK” value in the series with sphingosine kinase (SK) was “inhibit SK”. For the same compound, in series [4] (100 mg/kg orally on odd days, PEG400), the “inhibition of tumor growth” value is listed as 69%. Besides, in series [4] (female, Balb/c, mouse, in vivo), the “therapeutic index (nontoxic dose/antitumor activity)” value is given as “greater than 30”. In series [4] (mouse, in vivo), the “toxicity to the tumor-bearing mice” value was “without toxicity”. Also, in [4] (oral, odd days, dose-response, FIG. 13), the “EC50 for inhibition of tumor growth” value is reported as “approximately 35 mg/kg”.
For the compound `O=C1C(=Cc2ccc(O)c(O)c2)Oc2ccccc21` [Compound V], in the series on endogenous SK (25 μg/mL (approximately 80 μM)), the “endogenous SK activity in bovine RECs” value is listed as “active”.
